Assay results published in ChEMBL document CHEMBL5108011, “Design, synthesis and antitumor evaluation of ATP dual-mimic 2,4-diarylaminopyrimidine and aminoindazole conjugates as potent anaplastic lymphoma kinase inhibitors” (Eur J Med Chem, 2022).
Activity calls are given as the source filed them. The rule behind the calls is not given here.

Legend:
NCI-H2228 [1] = assay: Inhibition of cell migration in EML4-ALK-positive human NCI-H2228 cells assessed as relative migration rate at 5 nM measured after 24 hrs by cell scratch assay (reference value: 21.4 %); format: functional; set-up: scale not given: the % may be the effect or the level left
NCI-H2228 [2] = assay: Induction of apoptosis in EML4-ALK-positive human NCI-H2228 cells assessed as increase in apoptotic cells at 100 to 200 nM measured after 48 hrs by AO/EB staining based inverted fluorescence microscopic analysis; format: functional, cell-based; details: dose 100-200 nM, DDE = dose-dependent effect
NCI-H2228 [3] = assay: Cell cycle arrest in EML4-ALK-positive human NCI-H2228 cells assessed as cells accumulation at G2/M phase at 25 nM (reference value: 11.28%); format: functional
NCI-H2228 [4] = assay: Cell cycle arrest in EML4-ALK-positive human NCI-H2228 cells assessed as cells accumulation at S phase at 25 nM (reference value: 35.48%); format: functional
NCI-H460 = assay: Antiproliferative activity against human NCI-H460 cells incubated for 72 hrs and measured by CCK-8 assay; format: functional, cell-based; details: NCI-H460, 72 h
NCI-H2228 [5] = assay: Cell cycle arrest in EML4-ALK-positive human NCI-H2228 cells assessed as cells accumulation at S phase at 100 nM (reference value: 35.48%); format: functional
NCI-H2228 [6] = assay: Cell cycle arrest in EML4-ALK-positive human NCI-H2228 cells assessed as cells accumulation at G0/G1 phase at 25 nM (reference value: 53.24%); format: functional
NCI-H2228 [7] = assay: Antiproliferative activity against EML4-ALK-positive human NCI-H2228 cells incubated for 3 days at 25 to 100 nM and assessed as decrease in number of colonies by colony formation assay; format: functional, cell-based; details: dose 25-100 nM, time 3.0 day
KARPAS-299 = assay: cells; details: Homo sapiens, KARPAS-299, 72 h
Description: Antiproliferative activity against NPM-ALK-positive human KARPAS-299 cells incubated for 72 hrs and measured by CCK-8 assay

[8] = Intrinsic clearance in Sprague-Dawley rat liver microsomes at 10 uM preincubated for 5 mins followed by NADPH addition and measured upto 60 mins by HPLC analysis; format: ADME, Microsome; details: read-out: CLH
HCT-116 = assay: Antiproliferative activity against human HCT-116 cells incubated for 72 hrs and measured by CCK-8 assay; format: functional, cell-based; details: HCT-116, 72 h
PC-3 = assay: Antiproliferative activity against human PC-3 cells incubated for 72 hrs and measured by CCK-8 assay; format: functional, cell-based; details: PC-3, 72 h
[9] = Intrinsic clearance in Sprague-Dawley rat liver at 10 uM preincubated for 5 mins followed by NADPH addition and measured upto 60 mins by HPLC analysis; format: ADME, tissue-based; details: read-out: CLH
NCI-H2228 [10] = assay: cells; details: Homo sapiens, NCI-H2228, 72 h
Description: Antiproliferative activity against EML4-ALK-positive human NCI-H2228 cells incubated for 72 hrs and measured by CCK-8 assay

NCI-H2228 [11] = assay: Induction of apoptosis in EML4-ALK-positive human NCI-H2228 cells assessed as increase in apoptotic cells at 100 to 200 nM measured after 48 hrs by Hoechst 33342 staining based assay; format: functional, cell-based; details: dose 100-200 nM, DDE = dose-dependent effect
[12] = Cytotoxicity against human HELF cells incubated for 72 hrs and measured by CCK-8 assay; format: toxicity, cell-based
NCI-H2228 [13] = assay: Induction of apoptosis in EML4-ALK-positive human NCI-H2228 cells assessed as apoptotic rate at 100 nM measured after 48 hrs by annexin V-FITC/propidium iodide staining based flow cytometry (reference value: 6.6%); format: functional
NCI-H2228 [14] = assay: Inhibition of cell migration in EML4-ALK-positive human NCI-H2228 cells assessed as relative migration rate at 10 nM measured after 48 hrs by cell scratch assay (reference value: 35.99 %); format: functional; set-up: scale not given: the % may be the effect or the level left
NCI-H2228 [15] = assay: Cell cycle arrest in EML4-ALK-positive human NCI-H2228 cells assessed as cells accumulation at G2/M phase at 100 nM (reference value: 11.28%); format: functional
NCI-H2228 [16] = assay: Cell cycle arrest in EML4-ALK-positive human NCI-H2228 cells assessed as cells accumulation at G0/G1 phase at 50 nM (reference value: 53.24%); format: functional
NCI-H2228 [17] = assay: Cell cycle arrest in EML4-ALK-positive human NCI-H2228 cells assessed as cells accumulation at G0/G1 phase at 100 nM (reference value: 53.24%); format: functional
NCI-H2228 [18] = assay: Inhibition of cell migration in EML4-ALK-positive human NCI-H2228 cells assessed as relative migration rate at 5 nM measured after 48 hrs by cell scratch assay (reference value: 35.99 %); format: functional; set-up: scale not given: the % may be the effect or the level left
NCI-H2228 [19] = assay: Cell cycle arrest in EML4-ALK-positive human NCI-H2228 cells assessed as cells accumulation at S phase at 50 nM (reference value: 35.48%); format: functional
[20] = molecular target: ALK tyrosine kinase receptor (Homo sapiens, UniProt Q9UM73, G1202R); assay: Inhibition of ALK G1202R mutant (unknown origin) incubated for 1 hr and measured by mobility shift assay
NCI-H2228 [21] = assay: Cell cycle arrest in EML4-ALK-positive human NCI-H2228 cells assessed as cells accumulation at G2/M phase at 50 nM (reference value: 11.28%); format: functional
[22] = Toxicity in female BALB/c nude mouse xenografted with EML4-ALK-positive human NCI-H2228 cells assessed as body weight loss at 25 to 50 mg/kg, IG administered every 2 days for 7 times; format: organism-based; details: in vivo, po, 48 h, dose 25-50 mg/kg, time 2 day
NCI-H3122 = assay: cells; details: Homo sapiens, NCI-H3122, 72 h
Description: Antiproliferative activity against EML4-ALK-positive human NCI-H3122 cells incubated for 72 hrs and measured by CCK-8 assay

[23] = Metabolic stability in Sprague-Dawley rat liver microsomes assessed as half life at 10 uM preincubated for 5 mins followed by NADPH addition and measured upto 60 mins by HPLC analysis; format: ADME, Microsome
NCI-H2228 [24] = assay: Induction of apoptosis in EML4-ALK-positive human NCI-H2228 cells assessed as apoptotic rate at 200 nM measured after 48 hrs by annexin V-FITC/propidium iodide staining based flow cytometry (reference value: 6.6%); format: functional
A549 = assay: cells; details: Homo sapiens, A549, 72 h
Description: Antiproliferative activity against EGFR-positive human A549 cells incubated for 72 hrs and measured by CCK-8 assay

MCF7 = assay: Antiproliferative activity against human MCF7 cells incubated for 72 hrs and measured by CCK-8 assay; format: functional, cell-based; details: MCF7, 72 h
[25] = molecular target: ALK tyrosine kinase receptor (Homo sapiens, UniProt Q9UM73); assay: Inhibition of ALK (unknown origin) incubated for 1 hr and measured by mobility shift assay
[26] = Metabolic stability in Sprague-Dawley rat liver microsomes assessed as compound remaining at 10 uM preincubated for 5 mins followed by NADPH addition and measured upto 60 mins by HPLC analysis; format: ADME, Microsome; details: read-out: Stability
[27] = molecular target: Epidermal growth factor receptor (Homo sapiens, UniProt P00533); assay: Inhibition of EGFR (unknown origin) incubated for 1 hr and measured by mobility shift assay
NCI-H2228 [28] = assay: Antitumor activity against EML4-ALK-positive human NCI-H2228 cells xenografted in female BALB/c nude mouse assessed as tumor growth inhibition at 50 mg/kg, IG administered every 2 days for 7 times; format: functional; details: NCI-H2228, po, 48 h, time 2 day, read-out: TGI
NCI-H2228 [29] = assay: Inhibition of cell migration in EML4-ALK-positive human NCI-H2228 cells assessed as relative migration rate at 10 nM measured after 24 hrs by cell scratch assay (reference value: 21.4 %); format: functional; set-up: scale not given: the % may be the effect or the level left
[30] = molecular target: ALK tyrosine kinase receptor (Homo sapiens, UniProt Q9UM73, L1196M); assay: Inhibition of ALK L1196M mutant (unknown origin) incubated for 1 hr and measured by mobility shift assay
NCI-H1581 = assay: Antiproliferative activity against human NCI-H1581 cells incubated for 72 hrs and measured by CCK-8 assay; format: functional, cell-based; details: NCI-H1581, 72 h
[31] = Metabolic stability in Sprague-Dawley rat liver microsomes assessed as compound remaining at 10 uM preincubated for 5 mins and measured upto 60 mins by HPLC analysis; format: ADME, Microsome; details: read-out: Stability

Sequence of ALK tyrosine kinase receptor (Homo sapiens, UniProt Q9UM73, G1202R) (Q9UM73 19-1620 G1202R limits assumed): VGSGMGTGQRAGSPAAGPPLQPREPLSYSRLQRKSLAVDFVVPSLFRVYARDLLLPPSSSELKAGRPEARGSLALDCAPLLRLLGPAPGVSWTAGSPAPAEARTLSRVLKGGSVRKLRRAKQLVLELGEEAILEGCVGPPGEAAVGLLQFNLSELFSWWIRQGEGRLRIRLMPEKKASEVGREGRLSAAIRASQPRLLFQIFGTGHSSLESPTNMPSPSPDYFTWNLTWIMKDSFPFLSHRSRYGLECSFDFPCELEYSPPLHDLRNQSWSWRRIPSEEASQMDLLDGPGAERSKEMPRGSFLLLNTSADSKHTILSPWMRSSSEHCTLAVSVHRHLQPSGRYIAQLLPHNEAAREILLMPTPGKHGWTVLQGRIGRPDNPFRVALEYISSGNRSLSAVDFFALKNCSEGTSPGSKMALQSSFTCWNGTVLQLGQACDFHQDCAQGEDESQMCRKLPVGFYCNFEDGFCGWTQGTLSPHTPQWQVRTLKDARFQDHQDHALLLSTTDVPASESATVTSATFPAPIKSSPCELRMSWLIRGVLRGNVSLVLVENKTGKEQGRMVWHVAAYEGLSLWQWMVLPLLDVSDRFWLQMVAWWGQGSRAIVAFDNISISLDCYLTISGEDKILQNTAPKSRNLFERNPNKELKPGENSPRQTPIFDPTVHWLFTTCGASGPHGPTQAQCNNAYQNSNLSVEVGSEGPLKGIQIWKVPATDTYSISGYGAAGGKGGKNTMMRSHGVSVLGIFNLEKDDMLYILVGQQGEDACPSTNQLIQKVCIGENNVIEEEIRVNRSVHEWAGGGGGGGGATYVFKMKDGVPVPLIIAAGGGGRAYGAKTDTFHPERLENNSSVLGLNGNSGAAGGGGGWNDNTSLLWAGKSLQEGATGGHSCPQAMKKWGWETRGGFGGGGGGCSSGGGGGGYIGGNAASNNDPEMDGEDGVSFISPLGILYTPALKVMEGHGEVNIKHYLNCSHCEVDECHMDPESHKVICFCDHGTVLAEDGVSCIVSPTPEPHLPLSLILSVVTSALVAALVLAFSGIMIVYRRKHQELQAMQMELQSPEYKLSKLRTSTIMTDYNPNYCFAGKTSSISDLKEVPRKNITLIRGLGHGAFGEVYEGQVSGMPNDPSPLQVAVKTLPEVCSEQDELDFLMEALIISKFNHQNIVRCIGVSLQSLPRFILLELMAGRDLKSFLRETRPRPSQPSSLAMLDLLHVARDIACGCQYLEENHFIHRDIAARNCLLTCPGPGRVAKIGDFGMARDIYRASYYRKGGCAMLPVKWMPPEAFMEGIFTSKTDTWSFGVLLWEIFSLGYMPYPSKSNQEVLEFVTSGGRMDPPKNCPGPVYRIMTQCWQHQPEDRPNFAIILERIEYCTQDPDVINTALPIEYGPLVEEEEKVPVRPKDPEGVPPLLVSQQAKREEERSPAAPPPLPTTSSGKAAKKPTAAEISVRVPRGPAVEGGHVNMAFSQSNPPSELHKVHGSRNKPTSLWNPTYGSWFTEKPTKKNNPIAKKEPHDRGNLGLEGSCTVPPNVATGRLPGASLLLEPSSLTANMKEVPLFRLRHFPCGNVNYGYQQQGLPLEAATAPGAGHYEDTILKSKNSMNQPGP
Sequence of ALK tyrosine kinase receptor (Homo sapiens, UniProt Q9UM73) (Q9UM73 whole entry): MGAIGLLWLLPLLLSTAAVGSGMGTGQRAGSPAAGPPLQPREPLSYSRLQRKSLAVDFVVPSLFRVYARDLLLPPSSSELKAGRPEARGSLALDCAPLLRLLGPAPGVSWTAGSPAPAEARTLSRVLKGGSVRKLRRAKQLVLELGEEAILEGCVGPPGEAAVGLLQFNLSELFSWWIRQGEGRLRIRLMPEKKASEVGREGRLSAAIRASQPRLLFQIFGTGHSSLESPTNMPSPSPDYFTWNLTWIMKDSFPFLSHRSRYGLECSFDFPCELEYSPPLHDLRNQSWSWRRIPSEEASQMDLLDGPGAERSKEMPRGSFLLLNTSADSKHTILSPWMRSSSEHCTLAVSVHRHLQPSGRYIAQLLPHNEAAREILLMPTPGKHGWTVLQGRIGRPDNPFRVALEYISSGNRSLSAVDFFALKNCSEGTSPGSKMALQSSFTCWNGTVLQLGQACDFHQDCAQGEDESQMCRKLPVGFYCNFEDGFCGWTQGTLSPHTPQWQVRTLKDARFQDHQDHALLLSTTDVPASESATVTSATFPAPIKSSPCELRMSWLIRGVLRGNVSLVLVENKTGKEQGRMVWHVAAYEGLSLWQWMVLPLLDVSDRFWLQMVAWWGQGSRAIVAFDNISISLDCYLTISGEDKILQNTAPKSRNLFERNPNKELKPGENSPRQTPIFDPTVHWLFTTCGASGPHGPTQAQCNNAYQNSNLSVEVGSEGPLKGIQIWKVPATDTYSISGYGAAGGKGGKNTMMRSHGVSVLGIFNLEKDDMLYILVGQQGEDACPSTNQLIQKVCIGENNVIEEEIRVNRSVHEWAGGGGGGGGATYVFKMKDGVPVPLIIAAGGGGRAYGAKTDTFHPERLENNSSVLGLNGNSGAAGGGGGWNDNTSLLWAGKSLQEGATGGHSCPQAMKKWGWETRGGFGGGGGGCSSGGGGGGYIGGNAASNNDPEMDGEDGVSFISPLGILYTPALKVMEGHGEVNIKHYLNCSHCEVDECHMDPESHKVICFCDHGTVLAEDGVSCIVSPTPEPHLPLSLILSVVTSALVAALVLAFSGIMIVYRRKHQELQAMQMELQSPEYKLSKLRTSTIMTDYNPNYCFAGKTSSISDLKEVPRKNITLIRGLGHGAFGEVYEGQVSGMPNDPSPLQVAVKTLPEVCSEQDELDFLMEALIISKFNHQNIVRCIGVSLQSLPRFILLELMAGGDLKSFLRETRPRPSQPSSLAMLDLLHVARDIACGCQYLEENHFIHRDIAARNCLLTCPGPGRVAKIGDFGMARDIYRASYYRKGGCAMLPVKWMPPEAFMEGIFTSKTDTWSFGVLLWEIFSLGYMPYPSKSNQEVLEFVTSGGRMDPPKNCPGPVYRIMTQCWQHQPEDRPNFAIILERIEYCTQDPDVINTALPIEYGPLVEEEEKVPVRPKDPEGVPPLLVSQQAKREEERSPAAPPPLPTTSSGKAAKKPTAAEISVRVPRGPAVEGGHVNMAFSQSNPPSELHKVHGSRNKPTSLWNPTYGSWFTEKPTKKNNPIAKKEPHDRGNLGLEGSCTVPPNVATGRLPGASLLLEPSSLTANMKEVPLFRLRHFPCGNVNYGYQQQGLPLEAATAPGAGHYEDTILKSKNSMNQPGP
Sequence of ALK tyrosine kinase receptor (Homo sapiens, UniProt Q9UM73, L1196M) (Q9UM73 19-1620 L1196M limits assumed): as the sequence (Q9UM73 19-1620 G1202R limits assumed) above, with L1178M, R1184G counted along it
Sequence of Epidermal growth factor receptor (P00533 whole entry): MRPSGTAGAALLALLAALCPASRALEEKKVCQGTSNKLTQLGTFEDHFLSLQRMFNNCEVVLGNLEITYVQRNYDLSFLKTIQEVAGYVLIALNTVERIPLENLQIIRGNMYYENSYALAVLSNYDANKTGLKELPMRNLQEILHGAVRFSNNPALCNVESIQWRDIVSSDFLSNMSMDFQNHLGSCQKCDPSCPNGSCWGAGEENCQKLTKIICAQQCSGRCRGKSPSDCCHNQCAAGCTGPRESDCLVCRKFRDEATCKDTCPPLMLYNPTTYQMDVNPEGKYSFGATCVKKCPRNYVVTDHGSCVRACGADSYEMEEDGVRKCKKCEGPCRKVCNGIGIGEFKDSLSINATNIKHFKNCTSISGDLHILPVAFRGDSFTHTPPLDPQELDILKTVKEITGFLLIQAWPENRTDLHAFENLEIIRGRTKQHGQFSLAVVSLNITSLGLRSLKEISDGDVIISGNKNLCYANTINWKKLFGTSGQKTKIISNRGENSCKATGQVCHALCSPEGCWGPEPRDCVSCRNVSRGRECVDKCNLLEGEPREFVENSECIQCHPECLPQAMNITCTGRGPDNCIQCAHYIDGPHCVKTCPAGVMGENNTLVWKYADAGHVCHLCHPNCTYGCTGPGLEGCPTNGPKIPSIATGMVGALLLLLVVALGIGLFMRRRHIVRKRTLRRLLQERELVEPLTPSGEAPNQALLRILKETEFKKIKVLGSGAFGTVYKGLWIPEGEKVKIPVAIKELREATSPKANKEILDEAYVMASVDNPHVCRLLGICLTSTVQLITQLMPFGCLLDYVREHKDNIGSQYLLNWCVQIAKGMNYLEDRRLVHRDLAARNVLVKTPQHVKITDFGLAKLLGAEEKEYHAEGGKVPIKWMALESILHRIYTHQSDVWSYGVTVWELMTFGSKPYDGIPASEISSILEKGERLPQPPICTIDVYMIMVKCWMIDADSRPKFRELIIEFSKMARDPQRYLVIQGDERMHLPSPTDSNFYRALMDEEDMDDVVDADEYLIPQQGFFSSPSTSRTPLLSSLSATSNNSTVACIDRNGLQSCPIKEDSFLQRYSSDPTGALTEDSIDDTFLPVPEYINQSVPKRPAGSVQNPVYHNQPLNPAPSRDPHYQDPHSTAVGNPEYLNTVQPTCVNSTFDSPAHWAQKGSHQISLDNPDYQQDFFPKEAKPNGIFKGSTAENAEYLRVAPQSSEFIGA

For `CC(C)S(=O)(=O)c1ccccc1Nc1nc(Nc2ccc3c(NC(=O)CN4CCCC4)n[nH]c3c2)ncc1Cl`, the Activity (NCI-H2228 [1]) was 7.3%, the Activity (NCI-H2228 [2]) was “Dde” and the Activity (NCI-H2228 [3]) was 45.5%. The Activity (NCI-H2228 [4]) was 9.4%, the IC50 (NCI-H460) was 8210 nM and the Activity (NCI-H2228 [5]) was 0%. For the same molecule, the Activity (NCI-H2228 [6]) was 45.1%, the Activity (NCI-H2228 [7]) was “Active” and the IC50 (KARPAS-299) was 15 nM. The microsomal CLint at 10 µM [8] was 84.9 µL/min/mg, the IC50 (HCT-116) was 1560 nM and the IC50 (PC-3) was 1230 nM. The CLint scaled at 10 µM [9] was 153 mL/min/kg, the IC50 (NCI-H2228 [10]) was 17 nM and the Activity (NCI-H2228 [11]) was “Dde”. For the same molecule, the IC50 at 72 h [12] was over 20000 nM, the Activity (NCI-H2228 [13]) was 18.83% and the Activity (NCI-H2228 [14]) was 5.01%. The Activity (NCI-H2228 [15]) was 73.23%, the Activity (NCI-H2228 [16]) was 31.29% and the Activity (NCI-H2228 [17]) was 26.77%. It also gave an Activity (NCI-H2228 [18]) of 17.02%, an Activity (NCI-H2228 [19]) of 7.4% and an IC50 [20] of 1.3 nM. For the same molecule, the Activity (NCI-H2228 [21]) was 61.31%, the Activity [22] was “Non-Toxic” and the IC50 (NCI-H3122) was 12 nM. The half-life at 10 µM [23] was 16.3 min, the Activity (NCI-H2228 [24]) was 23.28% and the IC50 (A549) was 1330 nM. The IC50 (MCF7) was 2220 nM, the IC50 [25] was 1.6 nM and the remaining at 1 h, 10 µM [26] was 7.5%. The IC50 [27] was over 1000 nM, the inhibition in vivo at 50 mg/kg (NCI-H2228 [28]) was 70.5% and the Activity (NCI-H2228 [29]) was 2.31%. The IC50 [30] was 0.71 nM, the IC50 (NCI-H1581) was 1870 nM and the remaining at 1 h, 10 µM [31] was 86.2%.
